In the NIST ThermoML archive (doi:10.1016/j.fluid.2013.06.041):

Experiment: xn = mol fraction of the nth substance listed
Details: 101 kPa, Liquid, Small sample (50 mg) DSC

OCCCO [propan-1,3-diol] + O
excess molar heat capacity [J/K/mol]
Details | 283.15 K | 293.15 K | 298.15 K | 303.15 K | 313.15 K
x1 = 0.02483 | 1.28 | 1.4 | 1.43 | 1.44 | 1.46
x1 = 0.03693 | 1.89 | 2.08 | 2.13 | 2.16 | 2.26
x1 = 0.05016 | 2.35 | 2.72 | 2.83 | 2.9 | 2.99
x1 = 0.07515 | 2.54 | 3.22 | 3.44 | 3.59 | 3.8
x1 = 0.1401 | 2.24 | 3.61 | 4.11 | 4.52 | 5.08
x1 = 0.1504 | 2.2 | 3.67 | 4.21 | 4.64 | 5.27
x1 = 0.299 | 1.59 | 3.18 | 3.84 | 4.43 | 5.44
x1 = 0.3982 | 1.31 | 2.66 | 3.28 | 3.85 | 4.81
x1 = 0.4976 | 1.26 | 2.34 | 2.82 | 3.25 | 4.02
x1 = 0.5955 | 1.15 | 1.92 | 2.33 | 2.74 | 3.48
x1 = 0.7025 | – | 1.71 | 1.95 | 2.2 | 2.64
x1 = 0.7902 | 0.98 | 1.19 | 1.3 | 1.4 | 1.49
x1 = 0.9455 | 0.48 | 0.53 | 0.58 | 0.61 | 0.55

OCCCCO [1,4-butanediol] + O
excess molar heat capacity [J/K/mol]
Details | 283.15 K | 293.15 K | 298.15 K | 303.15 K | 313.15 K
x1 = 0.00538 | 1.24 | 1.14 | 1.06 | 1.01 | 1.1
x1 = 0.01312 | 2.19 | 2.16 | 2.08 | 2.01 | 1.92
x1 = 0.02505 | 3.41 | 3.49 | 3.5 | 3.52 | 3.58
x1 = 0.02518 | 3.17 | 3.34 | 3.32 | 3.28 | 3.33
x1 = 0.03528 | 4.45 | 4.6 | 4.58 | 4.53 | 4.52
x1 = 0.04842 | 5.39 | 5.61 | 5.64 | 5.65 | 5.67
x1 = 0.0574 | 6.22 | 6.53 | 6.59 | 6.62 | 6.68
x1 = 0.07589 | 6.43 | 7.15 | 7.34 | 7.46 | 7.6
x1 = 0.08236 | 6.7 | 7.51 | 7.71 | 7.85 | 8.09
x1 = 0.09032 | 6.66 | 7.65 | 7.89 | 8.04 | 8.25
x1 = 0.1005 | 6.94 | 8.03 | 8.38 | 8.63 | 8.9
x1 = 0.1396 | 6.87 | 8.33 | 8.81 | 9.17 | 9.74
x1 = 0.1403 | 6.85 | 8.37 | 8.87 | 9.24 | 9.77
x1 = 0.1868 | 6.33 | 8.24 | 9.84 | 10.39 | 11.21
x1 = 0.2961 | 5.63 | 7.75 | 8.91 | 9.42 | 10.66
x1 = 0.3972 | 4.75 | 6.83 | 7.7 | – | 10.31
x1 = 0.4965 | 4.04 | 5.92 | 6.8 | 7.63 | 9.13
x1 = 0.5659 | 3.29 | 5.08 | 5.88 | 6.64 | 8.11
x1 = 0.7004 | 2.95 | 4.32 | 4.96 | 5.57 | 6.8
x1 = 0.7964 | 2.92 | 3.47 | 3.89 | 4.33 | 5.14
x1 = 0.8873 | 1.38 | 2.21 | 2.5 | 2.79 | 3.63
x1 = 0.9398 | 0.81 | 1.14 | 1.34 | 1.56 | 2.03

CC(O)CO (centres undefined) [1,2-propanediol] + O
excess molar heat capacity [J/K/mol]
Details | 283.15 K | 293.15 K | 298.15 K | 303.15 K | 313.15 K
x1 = 0.02216 | 1.78 | 2.01 | 1.98 | 1.95 | 1.84
x1 = 0.05617 | 3.3 | 3.57 | 3.62 | 3.63 | 3.59
x1 = 0.07845 | 4.67 | 5.18 | 5.29 | 5.35 | 5.39
x1 = 0.1224 | 5.38 | 6.18 | 6.43 | 6.6 | 6.81
x1 = 0.1545 | 5.22 | 6.19 | 6.5 | 6.73 | 6.96
x1 = 0.1667 | 4.94 | 6.02 | 6.37 | 6.62 | 6.95
x1 = 0.1873 | 4.62 | 5.79 | 6.18 | 6.49 | 6.9
x1 = 0.2272 | 4.15 | 5.41 | 5.86 | 6.21 | 6.72
x1 = 0.2878 | 2.67 | 4.01 | 4.52 | 4.94 | 5.62
x1 = 0.3965 | 1.6 | 3.11 | 3.65 | 4.08 | 4.77
x1 = 0.4863 | 0.67 | 1.88 | 2.34 | 2.75 | 3.53
x1 = 0.5274 | 0.69 | 1.74 | 2.17 | 2.58 | 3.35
x1 = 0.6388 | 0.77 | 1.63 | 1.97 | 2.3 | 3.01
x1 = 0.753 | 0.72 | 1.32 | 1.55 | 1.76 | 2.18
x1 = 0.7757 | 0.8 | 1.04 | 1.24 | 1.47 | 1.96
x1 = 0.9045 | 0.26 | 0.38 | 0.11 | 0.14 | 0.32
x1 = 0.9677 | 0.09 | – | – | – | –
